Assay results from publication PMC5218480 (PLoS ONE, 2017).

Test system: MV-4-11 cells
Assay: Gene expression microarray analysis (Affymetrix PrimeView) and GSEA
Format: cell-based, human
Set-up: RFU PODN (11730768_x_at) / Fold change /veh PODN (11730768_x_at) / RFU LINC00158 (11744669_a_at) / Fold change /veh LINC00158 (11744669_a_at) / RFU DUSP10 (11751237_a_at) / Fold change /veh DUSP10 (11751237_a_at) / RFU ID3 (11757404_x_at) / Fold change /veh ID3 (11757404_x_at) / RFU PLEKHG5 (11737974_s_at) / Fold change /veh PLEKHG5 (11737974_s_at) / RFU LRRC4B (11730491_at) / Fold change /veh LRRC4B (11730491_at) / RFU GIMAP4 (11747438_a_at) / Fold change /veh GIMAP4 (11747438_a_at) / RFU KRT8 (11758183_x_at) / Fold change /veh KRT8 (11758183_x_at) / RFU CNN1 (11734310_a_at) / Fold change /veh CNN1 (11734310_a_at) / RFU VPS37D (11726825_at) / Fold change /veh VPS37D (11726825_at) / RFU C10orf10 (11716522_x_at) / Fold change /veh C10orf10 (11716522_x_at) / RFU KIR2DL2 /// KIR2DL4 /// KIR2DL5A /// KIR2DL5B /// KIR2DS1 /// KIR2DS2 /// KIR2DS3 /// KIR2DS4 /// KIR3DL3 /// KIR3DL3 /// KIR3DS1 (11738374_at) / Fold change /veh KIR2DL2 /// KIR2DL4 /// KIR2DL5A /// KIR2DL5B /// KIR2DS1 /// KIR2DS2 /// KIR2DS3 /// KIR2DS4 /// KIR3DL3 /// KIR3DL3 /// KIR3DS1 (11738374_at) / RFU C1QL1 (11718748_at) / Fold change /veh C1QL1 (11718748_at) / RFU TMPRSS4 (11747572_a_at) / Fold change /veh TMPRSS4 (11747572_a_at) / RFU HAMP (11756126_x_at) / Fold change /veh HAMP (11756126_x_at) / RFU RNFT2 (11725882_a_at) / Fold change /veh RNFT2 (11725882_a_at) / RFU NR4A2 (11747474_a_at) / Fold change /veh NR4A2 (11747474_a_at) / RFU ABCC12 (11746883_a_at) / Fold change /veh ABCC12 (11746883_a_at) / RFU TMEM136 (11760407_x_at) / Fold change /veh TMEM136 (11760407_x_at) / RFU CLDN22 /// WWC2 (11732394_at) / Fold change /veh CLDN22 /// WWC2 (11732394_at) / RFU HLA-DPB1 (11760878_x_at) / Fold change /veh HLA-DPB1 (11760878_x_at) / RFU SPINT1 (11716480_a_at) / Fold change /veh SPINT1 (11716480_a_at) / RFU GAP43 (11754022_s_at) / Fold change /veh GAP43 (11754022_s_at) / RFU A4GNT (11735810_at) / Fold change /veh A4GNT (11735810_at) / RFU PRB3 (11715151_x_at) / Fold change /veh PRB3 (11715151_x_at) / RFU TUBB4B (11761932_at) / Fold change /veh TUBB4B (11761932_at) / RFU CAPN14 (11732068_a_at) / Fold change /veh CAPN14 (11732068_a_at) / RFU TMCC2 (11721928_a_at) / Fold change /veh TMCC2 (11721928_a_at) / RFU IRGQ (11745062_a_at) / Fold change /veh IRGQ (11745062_a_at) / RFU FAM174B (11720279_a_at) / Fold change /veh FAM174B (11720279_a_at) / RFU TMPRSS4 (11748680_a_at) / Fold change /veh TMPRSS4 (11748680_a_at) / RFU FAM212B (11763350_a_at) / Fold change /veh FAM212B (11763350_a_at) / RFU PLEKHG5 (11743358_a_at) / Fold change /veh PLEKHG5 (11743358_a_at) / RFU ZSCAN30 (11745921_a_at) / Fold change /veh ZSCAN30 (11745921_a_at) / RFU CMKLR1 (11741424_a_at) / Fold change /veh CMKLR1 (11741424_a_at) / RFU LOC101060620 /// MAPK8IP1 (11723275_at) / Fold change /veh LOC101060620 /// MAPK8IP1 (11723275_at) / RFU SPTSSB (11747773_x_at) / Fold change /veh SPTSSB (11747773_x_at) / RFU PRSS12 (11739890_at) / Fold change /veh PRSS12 (11739890_at) / RFU BIN1 (11741810_x_at) / Fold change /veh BIN1 (11741810_x_at) / RFU WNT11 (11732464_a_at) / Fold change /veh WNT11 (11732464_a_at) / RFU C10orf10 (11716521_a_at) / Fold change /veh C10orf10 (11716521_a_at) / RFU C5orf56 (11738089_at) / Fold change /veh C5orf56 (11738089_at) / RFU CYB561 (11721691_x_at) / Fold change /veh CYB561 (11721691_x_at) / RFU ANKRD19P (11752326_a_at) / Fold change /veh ANKRD19P (11752326_a_at) / RFU OR2T12 /// OR2T33 /// OR2T8 (11738714_s_at) / Fold change /veh OR2T12 /// OR2T33 /// OR2T8 (11738714_s_at) / RFU VCAN (11748164_a_at) / Fold change /veh VCAN (11748164_a_at) / RFU JSRP1 (11732532_at) / Fold change /veh JSRP1 (11732532_at) / RFU KRTAP10-11 (11738290_x_at) / Fold change /veh KRTAP10-11 (11738290_x_at) / RFU MYO3A (11730013_a_at) / Fold change /veh MYO3A (11730013_a_at) / RFU EBF3 (11725865_a_at) / Fold change /veh EBF3 (11725865_a_at) / RFU CAMK2N1 (11719241_x_at) / Fold change /veh CAMK2N1 (11719241_x_at) / RFU C5orf56 (11738088_a_at) / Fold change /veh C5orf56 (11738088_a_at) / RFU OLFML3 (11715873_a_at) / Fold change /veh OLFML3 (11715873_a_at) / RFU LOC100653217 /// NTM (11731650_a_at) / Fold change /veh LOC100653217 /// NTM (11731650_a_at) / RFU MAPK11 (11762145_a_at) / Fold change /veh MAPK11 (11762145_a_at) / RFU FIZ1 (11724087_x_at) / Fold change /veh FIZ1 (11724087_x_at) / RFU OASL (11726364_x_at) / Fold change /veh OASL (11726364_x_at) / RFU SOX15 (11748057_x_at) / Fold change /veh SOX15 (11748057_x_at) / RFU CD79A (11719716_a_at) / Fold change /veh CD79A (11719716_a_at) / RFU HIST1H1D (11736915_at) / Fold change /veh HIST1H1D (11736915_at) / RFU CASKIN2 (11723855_a_at) / Fold change /veh CASKIN2 (11723855_a_at) / RFU LOC730098 (11760151_x_at) / Fold change /veh LOC730098 (11760151_x_at) / RFU OR4N2 (11742367_at) / Fold change /veh OR4N2 (11742367_at) / RFU PRRT2 (11749266_a_at) / Fold change /veh PRRT2 (11749266_a_at) / RFU SNX32 (11753110_a_at) / Fold change /veh SNX32 (11753110_a_at) / RFU CDHR5 (11726645_a_at) / Fold change /veh CDHR5 (11726645_a_at) / RFU RCAN1 (11760418_a_at) / Fold change /veh RCAN1 (11760418_a_at) / RFU FAM167A (11723789_a_at) / Fold change /veh FAM167A (11723789_a_at) / RFU FAM26E (11764081_at) / Fold change /veh FAM26E (11764081_at) / RFU ISYNA1 (11749810_s_at) / Fold change /veh ISYNA1 (11749810_s_at) / RFU ACY1 (11761880_at) / Fold change /veh ACY1 (11761880_at) / RFU 11764098_at / Fold change /veh 11764098_at / RFU SAMD14 (11745864_x_at) / Fold change /veh SAMD14 (11745864_x_at) / RFU NPB (11741838_a_at) / Fold change /veh NPB (11741838_a_at) / RFU TMPRSS6 (11731388_a_at) / Fold change /veh TMPRSS6 (11731388_a_at) / RFU KRTAP10-2 (11738614_at) / Fold change /veh KRTAP10-2 (11738614_at) / RFU ARHGAP8 /// PRR5-ARHGAP8 (11727945_x_at) / Fold change /veh ARHGAP8 /// PRR5-ARHGAP8 (11727945_x_at) / RFU KRTAP5-7 /// NADSYN1 (11734609_at) / Fold change /veh KRTAP5-7 /// NADSYN1 (11734609_at) / RFU RASL12 (11751679_a_at) / Fold change /veh RASL12 (11751679_a_at) / RFU CDKN2B (11736163_a_at) / Fold change /veh CDKN2B (11736163_a_at) / RFU PRF1 (11729649_at) / Fold change /veh PRF1 (11729649_at) / RFU, ZNF638 /// ZNF638-IT1 / Fold change vs veh, ZNF638 /// ZNF638-IT1 / RFU, PANK3 / Fold change vs veh, PANK3 / RFU, SH3YL1 / Fold change vs veh, SH3YL1 / RFU, ZEB2 / Fold change vs veh, ZEB2 / RFU, NRIP1 / Fold change vs veh, NRIP1 / RFU, PTTG1IP / Fold change vs veh, PTTG1IP / RFU, CAPN2 / Fold change vs veh, CAPN2 / RFU, MED14 / Fold change vs veh, MED14 / RFU, SNORA58 / Fold change vs veh, SNORA58 / RFU, C1orf63 / Fold change vs veh, C1orf63 / RFU, LRRFIP1 / Fold change vs veh, LRRFIP1 / RFU, NDUFAF7 / Fold change vs veh, NDUFAF7 / RFU, SLC12A2 / Fold change vs veh, SLC12A2 / RFU, IBTK / Fold change vs veh, IBTK / RFU, ESF1 / Fold change vs veh, ESF1 / Fold change vs veh, TMEM50B / RFU, TAOK1 / Fold change vs veh, TAOK1 / RFU, ACBD3 / Fold change vs veh, ACBD3 / RFU, TMA16 / Fold change vs veh, TMA16 / RFU, RWDD3 / Fold change vs veh, RWDD3 / RFU, BCAT1 / Fold change vs veh, BCAT1 / RFU, EDEM3 / Fold change vs veh, EDEM3 / RFU, TMEM33 / Fold change vs veh, TMEM33 / RFU, WDR75 / Fold change vs veh, WDR75 / RFU, AHCTF1 / Fold change vs veh, AHCTF1 / RFU, TFRC / Fold change vs veh, TFRC / RFU, ZDHHC17 / Fold change vs veh, ZDHHC17 / RFU, NOM1 / Fold change vs veh, NOM1 / RFU, ARL8B / Fold change vs veh, ARL8B / RFU, ZBTB11 / Fold change vs veh, ZBTB11 / RFU, TAMM41 / Fold change vs veh, TAMM41 / RFU, KIAA1704 /// LOC100996395 / Fold change vs veh, KIAA1704 /// LOC100996395 / RFU, ING1 / Fold change vs veh, ING1 / RFU, TRMT61B / Fold change vs veh, TRMT61B / RFU, FUBP3 / Fold change vs veh, FUBP3 / RFU, TP53 / Fold change vs veh, TP53 / RFU, TNKS2 / Fold change vs veh, TNKS2 / RFU, ZFP14 / Fold change vs veh, ZFP14 / RFU, ACTR2 / Fold change vs veh, ACTR2 / RFU, PPP3R1 / Fold change vs veh, PPP3R1 / RFU, PIK3R1 / Fold change vs veh, PIK3R1 / RFU, HNRNPA1 / Fold change vs veh, HNRNPA1 / RFU, RNF170 / Fold change vs veh, RNF170 / RFU, ZNF28 / Fold change vs veh, ZNF28 / RFU, RNGTT / Fold change vs veh, RNGTT / RFU, OGT / Fold change vs veh, OGT / RFU, BRD1 / Fold change vs veh, BRD1 / RFU, MARS / Fold change vs veh, MARS / RFU, ZNF655 / Fold change vs veh, ZNF655 / RFU, FAHD1 / Fold change vs veh, FAHD1 / RFU, BDP1 / Fold change vs veh, BDP1 / RFU, LRRCC1 / Fold change vs veh, LRRCC1 / RFU, ARID1A / Fold change vs veh, ARID1A / RFU, ZNF146 / Fold change vs veh, ZNF146 / RFU, ZNF330 / Fold change vs veh, ZNF330 / RFU, GPN3 / Fold change vs veh, GPN3 / RFU, C9orf123 / Fold change vs veh, C9orf123 / RFU, N4BP2L2 / Fold change vs veh, N4BP2L2 / RFU, ARFIP1 / Fold change vs veh, ARFIP1 / RFU, FAM179B / Fold change vs veh, FAM179B / RFU, BCL10 / Fold change vs veh, BCL10 / RFU, UHRF1BP1L / Fold change vs veh, UHRF1BP1L / RFU, BET1 / Fold change vs veh, BET1 / RFU, CNOT2 / Fold change vs veh, CNOT2 / RFU, ZNF268 / Fold change vs veh, ZNF268 / Fold change vs veh, ZNF507 / RFU, DGCR2 / Fold change vs veh, DGCR2 / RFU, WDSUB1 / Fold change vs veh, WDSUB1 / Fold change vs veh, HSP90B1 /// MIR3652 / RFU, ADSS / Fold change vs veh, ADSS / RFU, GK / Fold change vs veh, GK / RFU, ZNF148 / Fold change vs veh, ZNF148 / RFU, TAF9 / Fold change vs veh, TAF9 / RFU, SLC1A5 / Fold change vs veh, SLC1A5 / RFU, SLMO2 / Fold change vs veh, SLMO2 / RFU, ABCC4 / Fold change vs veh, ABCC4 / RFU, LOC101060439 /// RAP1B / Fold change vs veh, LOC101060439 /// RAP1B / RFU, RFX7 / Fold change vs veh, RFX7 / RFU, GTPBP10 / Fold change vs veh, GTPBP10 / RFU, CNEP1R1 / Fold change vs veh, CNEP1R1 / RFU, BIVM-ERCC5 /// ERCC5 / Fold change vs veh, BIVM-ERCC5 /// ERCC5 / RFU, ILF3 / Fold change vs veh, ILF3 / RFU 11762660_at / Fold change /veh 11762660_at / RFU VCAN (11757783_s_at) / Fold change /veh VCAN (11757783_s_at) / RFU DDX43 (11728927_at) / Fold change /veh DDX43 (11728927_at) / RFU KRT8 (11758188_x_at) / Fold change /veh KRT8 (11758188_x_at) / RFU NKD1 (11759106_at) / Fold change /veh NKD1 (11759106_at) / RFU SRD5A1 (11742802_a_at) / Fold change /veh SRD5A1 (11742802_a_at) / RFU TPSAB1 /// TPSB2 (11721975_s_at) / Fold change /veh TPSAB1 /// TPSB2 (11721975_s_at) / RFU GSTM3 (11746129_a_at) / Fold change /veh GSTM3 (11746129_a_at) / RFU IL23R (11737362_x_at) / Fold change /veh IL23R (11737362_x_at) / RFU TMEM51 (11727254_a_at) / Fold change /veh TMEM51 (11727254_a_at) / RFU PIWIL2 (11732686_x_at) / Fold change /veh PIWIL2 (11732686_x_at) / RFU ORM1 (11744905_x_at) / Fold change /veh ORM1 (11744905_x_at) / RFU CCDC152 (11743942_at) / Fold change /veh CCDC152 (11743942_at) / RFU ECM1 (11717891_a_at) / Fold change /veh ECM1 (11717891_a_at) / RFU IL23R (11748794_a_at) / Fold change /veh IL23R (11748794_a_at) / RFU TNFAIP8L3 (11732012_x_at) / Fold change /veh TNFAIP8L3 (11732012_x_at) / RFU MBOAT4 (11741988_at) / Fold change /veh MBOAT4 (11741988_at) / RFU 11764193_at / Fold change /veh 11764193_at / RFU TMEM53 (11763286_at) / Fold change /veh TMEM53 (11763286_at) / RFU MAGEB2 (11727129_at) / Fold change /veh MAGEB2 (11727129_at) / RFU TMEM200A (11744735_a_at) / Fold change /veh TMEM200A (11744735_a_at) / RFU CCDC152 (11751479_a_at) / Fold change /veh CCDC152 (11751479_a_at) / RFU FAM211A (11726209_a_at) / Fold change /veh FAM211A (11726209_a_at) / RFU RGS16 (11746705_a_at) / Fold change /veh RGS16 (11746705_a_at) / RFU VCAN (11755009_s_at) / Fold change /veh VCAN (11755009_s_at) / RFU RHOB (11743442_s_at) / Fold change /veh RHOB (11743442_s_at) / RFU RGS16 (11720943_a_at) / Fold change /veh RGS16 (11720943_a_at) / RFU RGS16 (11720944_at) / Fold change /veh RGS16 (11720944_at) / RFU, VPS4B / Fold change vs veh, VPS4B / RFU, CREB1 / Fold change vs veh, CREB1 / RFU, DNAJC13 / Fold change vs veh, DNAJC13 / RFU, GNAQ / Fold change vs veh, GNAQ / RFU, CDK5R1 / Fold change vs veh, CDK5R1 / RFU, ZRANB3 / Fold change vs veh, ZRANB3 / RFU, CUL4A / Fold change vs veh, CUL4A / RFU, CCNY / Fold change vs veh, CCNY / RFU, UFL1 / Fold change vs veh, UFL1 / RFU, COG3 / Fold change vs veh, COG3 / RFU, DIAPH2 / Fold change vs veh, DIAPH2 / RFU, SKA2 / Fold change vs veh, SKA2 / RFU, AFF3 / Fold change vs veh, AFF3 / RFU, LMF1 / Fold change vs veh, LMF1 / RFU, IPO11 / Fold change vs veh, IPO11 / RFU, DFFB / Fold change vs veh, DFFB / RFU, FOXP1 / Fold change vs veh, FOXP1 / RFU, CARD8 / Fold change vs veh, CARD8 / RFU, STRN3 / Fold change vs veh, STRN3 / RFU, ADK / Fold change vs veh, ADK / RFU, RASSF2 / Fold change vs veh, RASSF2 / RFU, WIPF1 / Fold change vs veh, WIPF1 / RFU, LARP1B / Fold change vs veh, LARP1B / RFU, RASA1 / Fold change vs veh, RASA1 / RFU, RB1 / Fold change vs veh, RB1 / RFU, PPFIA1 / Fold change vs veh, PPFIA1 / RFU, MAT2A / Fold change vs veh, MAT2A / RFU, CCT5 / Fold change vs veh, CCT5 / RFU, WDR92 / Fold change vs veh, WDR92 / RFU, CUX1 / Fold change vs veh, CUX1 / RFU, TTC7A / Fold change vs veh, TTC7A / RFU, TMEM135 / Fold change vs veh, TMEM135 / RFU, DEPTOR / Fold change vs veh, DEPTOR / RFU, CPM / Fold change vs veh, CPM / RFU, DNAJB6 / Fold change vs veh, DNAJB6 / RFU, CACNA2D3 / Fold change vs veh, CACNA2D3 / RFU, DTX4 / Fold change vs veh, DTX4 / RFU, TFCP2 / Fold change vs veh, TFCP2 / RFU, GMCL1 /// GMCL1P1 / Fold change vs veh, GMCL1 /// GMCL1P1 / RFU, AEBP2 / Fold change vs veh, AEBP2 / RFU, SNHG1 /// SNORD22 /// SNORD25 /// SNORD26 /// SNORD27 /// SNORD28 /// SNORD29 /// SNORD31 / Fold change vs veh, SNHG1 /// SNORD22 /// SNORD25 /// SNORD26 /// SNORD27 /// SNORD28 /// SNORD29 /// SNORD31 / Fold change (Aza/veh), C12orf56 (ProbeSet 11735607_a_at) / Fold change (ACY-1035/veh), C12orf56 (ProbeSet 11735607_a_at) / Fold change (Aza/veh), FGFR1OP (ProbeSet 11751329_s_at) / Fold change (ACY-1035/veh), FGFR1OP (ProbeSet 11751329_s_at) / Fold change (Aza/veh), VPS36 (ProbeSet 11739960_a_at) / Fold change (ACY-1035/veh), VPS36 (ProbeSet 11739960_a_at) / RFU SYPL1 (11715823_x_at) / Fold change /veh SYPL1 (11715823_x_at) / RFU IGFBP7 (11715501_s_at) / Fold change /veh IGFBP7 (11715501_s_at) / RFU REEP3 (11722064_at) / Fold change /veh REEP3 (11722064_at) / RFU IGLL1 (11728026_x_at) / Fold change /veh IGLL1 (11728026_x_at): dose or concentration left out as unconfirmed
Conditions: ProbeSet 11725217_a_at; LIST B

Nc1ncn([C@@H]2O[C@H](CO)[C@@H](O)[C@H]2O)c(=O)n1 [azacitidine]
RFU, WDSUB1: 50.65 RFU
